In patent US6054318A, “Expression of the glucose oxidase gene in transgenic organisms” (Commonwealth Scientific And Industrial Research Organization, priority 1994, dated 2000):

What was measured:
Rhyzoctonia solani = assay: In vitro growth of R. solani in PD broth, microtitre plate reader; assay type: cell-based; conditions: PD broth plus gluconic acid
Experimental: Glucose oxidase was examined in vitro for its ability to inhibit the growth of an Australian isolate of R. solani. Different concentrations of A. niger glucose oxidase suspended in potato dextrose broth and different amounts of filtrate from T. flavus 32908 and GOH-1 were inoculated with R. solani and fungal growth was monitored using a microtitre plate reader. Duplicates were performed for each experiment and the experiment was repeated twice. […] Growth inhibition curves for R. solani were calculated 26 hours after the start of fungal growth (FIG. 5). […] These values are approximately twice the glucose oxidase IC50 value determined for V. dahliae (2.2 μg/ml).

[1] = test system: Verticillium dahliae microsclerotia and mycelia; conditions: added to growth media; cited from earlier work
[2] = test system: Talaromyces flavus glucose oxidase, wild type; conditions: T. flavus glucose oxidase; read-out: Km for β-D-glucose; cited from earlier work
[3] = molecular target: Aspergillus niger glucose oxidase, wild type (Aspergillus niger, UniProt P13006); conditions: A. niger glucose oxidase; read-out: Km for β-D-glucose; cited from earlier work
Aspergillus niger glucose oxidase, wild type, sequence (P13006 17-605): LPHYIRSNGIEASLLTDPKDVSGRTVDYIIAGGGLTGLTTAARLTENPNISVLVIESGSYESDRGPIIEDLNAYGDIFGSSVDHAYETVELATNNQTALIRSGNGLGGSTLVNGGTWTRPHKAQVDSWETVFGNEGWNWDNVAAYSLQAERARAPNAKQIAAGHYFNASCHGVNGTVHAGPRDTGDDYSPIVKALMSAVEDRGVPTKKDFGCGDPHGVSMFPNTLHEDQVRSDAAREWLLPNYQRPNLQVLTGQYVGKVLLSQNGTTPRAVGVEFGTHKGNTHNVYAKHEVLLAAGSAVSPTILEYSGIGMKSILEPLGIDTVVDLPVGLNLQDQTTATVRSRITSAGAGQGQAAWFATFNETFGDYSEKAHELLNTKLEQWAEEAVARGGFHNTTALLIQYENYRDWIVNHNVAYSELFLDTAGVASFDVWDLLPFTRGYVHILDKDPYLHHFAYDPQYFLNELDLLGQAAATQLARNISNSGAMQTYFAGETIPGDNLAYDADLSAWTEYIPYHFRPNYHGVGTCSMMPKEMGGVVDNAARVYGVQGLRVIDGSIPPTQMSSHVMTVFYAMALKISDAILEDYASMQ

O=C(O)[C@H](O)[C@@H](O)[C@H](O)[C@H](O)CO [gluconic acid]
growth profile of R. solani compared with PD broth alone (Rhyzoctonia solani): very similar
inhibition of microsclerotial germination and mycelial growth [1]: did not cause inhibition

OC[C@H]1O[C@@H](O)[C@H](O)[C@@H](O)[C@@H]1O [β-D-glucose]
Km [2]: 10.9 mM
Km [3]: 27 mM

OO [hydrogen peroxide]
inhibition of microsclerotial germination and mycelial growth [1]: inhibited microsclerotial germination and mycelial growth

O=C[C@H](O)[C@@H](O)[C@H](O)[C@H](O)CO [glucose]
inhibition of microsclerotial germination and mycelial growth [1]: did not cause inhibition
